Measured values taken from patent US20260216238A1, “TETRATHIOMOLYBDIC ACID FOR USE IN TREATING COPPER METABOLISM-ASSOCIATED DISEASES OR DISORDERS (WILSON DISEASE)” (Alexion Pharmaceuticals, Inc., priority 2023, published 2026).
Read-outs that look alike come from different tables or passages of the source.

Experiments:
[1] = test system: patients with Wilson disease (WD); conditions: in vivo
[2] = test system: participants with WD
Description: The term “dNCC” refers to NCC as directly measured using an NCC assay. For example, in certain embodiments of the methods, uses, or compositions (e.g., comprising tetrathiomolybdic acid or a pharmaceutically acceptable salt thereof) of the disclosure, dNCC is directly measured using the NCC assay as disclosed in PCT Patent Application Publication No. WO2021/050850, filed on Sep.
These participants had all intake (food and drink) and output (urine and feces) collected from Day −4 through Day −1 (baseline), from Day 1 through Day 8, and Day 25 through Day 39.

bis-choline tetrathiomolybdate [TTM]
ALT increased AE, % participants [1]: 14.6% | ALT increased AE, E events [1]: 25 | ALT increased AE, N participants [1]: 20 | ALT increased adverse event [1]: 14.6% | AST increased AE, % participants [1]: 2.9% | AST increased AE, E events [1]: 4 | AST increased AE, N participants [1]: 4 | GGT increased AE, % participants [1]: 2.2% | GGT increased AE, E events [1]: 3 | GGT increased AE, N participants [1]: 3 | Hepatic enzyme increased AE, N participants [1]: 3 | Hepatic function abnormal AE, % participants [1]: 2.2% | Hepatic function abnormal AE, E events [1]: 3 | Hepatic function abnormal AE, N participants [1]: 3 | Hyperbilirubinemia AE, % participants [1]: 0.7% | Hyperbilirubinemia AE, E events [1]: 1 | Hyperbilirubinemia AE, N participants [1]: 1 | Hypertransaminasemia AE, % participants [1]: 1.5% | Hypertransaminasemia AE, E events [1]: 4 | Hypertransaminasemia AE, N participants [1]: 2 | Jaundice AE, % participants [1]: 0.7% | Jaundice AE, E events [1]: 1 | Jaundice AE, N participants [1]: 1 | LFT abnormal AE, % participants [1]: 1.5% | LFT abnormal AE, E events [1]: 2 | LFT abnormal AE, N participants [1]: 2 | LFT increased AE, % participants [1]: 2.9% | LFT increased AE, E events [1]: 4 | LFT increased AE, N participants [1]: 4 | Liver disorder AE, % participants [1]: 0.7% | Liver disorder AE, E events [1]: 1 | Liver disorder AE, N participants [1]: 1 | participants with ALT>3×ULN but≤5×ULN [1]: 10.2% | participants with ALT>5×ULN but≤10×ULN [1]: 7.3% | participants with ALT>10×ULN but≤20×ULN [1]: 0.7% | participants with ALT>20×ULN [1]: 2.9% | participants with post-baseline elevation of ALT ≥3× ULN [1]: 29 participants | Increase from Baseline in Directly Measured NCC, Mean ([2]; Day 1, 2 Hours Post-Dose): 0.5004 µmol/L | Increase from Baseline in Directly Measured NCC, Mean ([2]; Day 1, 4 Hours Post-Dose): 1.96 µmol/L | Increase from Baseline in Directly Measured NCC, Mean ([2]; Day 1, 5 Hours Post-Dose): 2.719 µmol/L | Increase from Baseline in Directly Measured NCC, Mean ([2]; Day 1, 6 Hours Post-Dose): 2.324 µmol/L | Increase from Baseline in Directly Measured NCC, Mean ([2]; Day 1, 8 Hours Post-Dose): 2.402 µmol/L | Increase from Baseline in Directly Measured NCC, Mean ([2]; Day 1, 12 Hours Post-Dose): 1.725 µmol/L | Increase from Baseline in Directly Measured NCC, Mean ([2]; Day 1, 24 Hours Post-Dose): 1.063 µmol/L | Increase from Baseline in Directly Measured NCC, Mean ([2]; Day 4, Pre-Dose): 2.677 µmol/L | Increase from Baseline in Directly Measured NCC, Mean ([2]; Day 5, Pre-Dose): 3.144 µmol/L | Increase from Baseline in Directly Measured NCC, Mean ([2]; Day 6, Pre-Dose): 3.574 µmol/L | Increase from Baseline in Directly Measured NCC, Mean ([2]; Day 7, Pre-Dose): 3.7 µmol/L | Increase from Baseline in Directly Measured NCC, Mean ([2]; Day 25, 2 Hours Post-Dose): 2.551 µmol/L | Increase from Baseline in Directly Measured NCC, Mean ([2]; Day 25, 4 Hours Post-Dose): 3.443 µmol/L | Increase from Baseline in Directly Measured NCC, Mean ([2]; Day 25, 5 Hours Post-Dose): 3.38 µmol/L | Increase from Baseline in Directly Measured NCC, Mean ([2]; Day 25, 6 Hours Post-Dose): 4.44 µmol/L | Increase from Baseline in Directly Measured NCC, Mean ([2]; Day 25, 8 Hours Post-Dose): 5.101 µmol/L | Increase from Baseline in Directly Measured NCC, Mean ([2]; Day 25, 12 Hours Post-Dose): 4.917 µmol/L | Increase from Baseline in Directly Measured NCC, Mean ([2]; Day 25, 24 Hours Post-Dose): 3.438 µmol/L | Increase from Baseline in Directly Measured NCC, Mean ([2]; Day 25, −0.5 Hours): 2.121 µmol/L | Increase from Baseline in Directly Measured NCC, Mean ([2]; Day 27, Pre-Dose, N=2): 2.767 µmol/L | Increase from Baseline in Directly Measured NCC, Mean ([2]; Day 28, Pre-Dose, N=2): 2.327 µmol/L | Increase from Baseline in Directly Measured NCC, Mean ([2]; Day 29, 2 Hours Post-Dose): 2.814 µmol/L | Increase from Baseline in Directly Measured NCC, Mean ([2]; Day 29, 4 Hours Post-Dose): 3.38 µmol/L | Increase from Baseline in Directly Measured NCC, Mean ([2]; Day 29, 5 Hours Post-Dose): 4.078 µmol/L | Increase from Baseline in Directly Measured NCC, Mean ([2]; Day 29, 6 Hours Post-Dose): 4.686 µmol/L | Increase from Baseline in Directly Measured NCC, Mean ([2]; Day 29, 8 Hours Post-Dose): 5.305 µmol/L | Increase from Baseline in Directly Measured NCC, Mean ([2]; Day 29, 12 Hours Post-Dose): 4.749 µmol/L | Increase from Baseline in Directly Measured NCC, Mean ([2]; Day 29, 24 Hours Post-Dose): 3.543 µmol/L | Increase from Baseline in Directly Measured NCC, Mean ([2]; Day 29, −0.5 Hours): 2.662 µmol/L | Increase from Baseline in Directly Measured NCC, Mean ([2]; Day 31, Pre-Dose, N=2): 4.121 µmol/L | Increase from Baseline in Directly Measured NCC, Mean ([2]; Day 32, Pre-Dose, N=1): 8.131 µmol/L | Increase from Baseline in Directly Measured NCC, Mean ([2]; Day 33, Pre-Dose, N=2): 4.231 µmol/L | Increase from Baseline in Directly Measured NCC, Mean ([2]; Day 34, Pre-Dose, N=2): 4.103 µmol/L | Increase from Baseline in Directly Measured NCC, Mean ([2]; Day 35, Pre-Dose, N=2): 4.49 µmol/L | Increase from Baseline in Directly Measured NCC, Mean ([2]; Day 36, Pre-Dose, N=2): 3.465 µmol/L | Increase from Baseline in Directly Measured NCC, Mean ([2]; Day 37, Pre-Dose, N=2): 4.168 µmol/L | Increase from Baseline in Directly Measured NCC, Mean ([2]; Day 38, Pre-Dose, N=1): 7.643 µmol/L | Increase from Baseline in Directly Measured NCC, Mean ([2]; Day 39, 2 Hours Post-Dose): 3.816 µmol/L | Increase from Baseline in Directly Measured NCC, Mean ([2]; Day 39, 4 Hours Post-Dose): 5.578 µmol/L | Increase from Baseline in Directly Measured NCC, Mean ([2]; Day 39, 5 Hours Post-Dose): 6.26 µmol/L | Increase from Baseline in Directly Measured NCC, Mean ([2]; Day 39, 6 Hours Post-Dose): 6.659 µmol/L | Increase from Baseline in Directly Measured NCC, Mean ([2]; Day 39, 8 Hours Post-Dose): 7.32 µmol/L | Increase from Baseline in Directly Measured NCC, Mean ([2]; Day 39, 12 Hours Post-Dose): 6.554 µmol/L | Increase from Baseline in Directly Measured NCC, Mean ([2]; Day 39, 24 Hours Post-Dose): 4.545 µmol/L | Increase from Baseline in Directly Measured NCC, Mean ([2]; Day 39, −0.5 Hours): 3.412 µmol/L
